Measurements from patent US20070282007A1, “TREATMENT OF PAIN DISORDERS WITH trans 4-(3,4-DICHLOROPHENYL)-1,2,3,4-TETRAHYDRO-1-NAPHTHALENAMINE AND ITS FORMAMIDE” (SEPRACOR INC., priority 2006, published 2007).

Key:
DA transporter = target: T1, DA transporter (Homo sapiens, UniProt Q01959); assay: Radioligand binding assay, DA transporter ([3H]GBR 12935 displacement); details: human recombinant; [3H]GBR 12935 0.5 nM; read-out: Ki, Dopamine (DA) transporter
T1 construct: expressed in transfected cells
Method: The assays measured the affinity of the two compounds for transporters of the monoamines 5-HT, NE and DA. […] The transporters were human recombinant proteins expressed in mammalian cells. Binding to the 5-HT transporter was assessed by evaluating displacement of [^3H]paroxetine (0.1 nM). […] Binding to the NE transporter was assessed by evaluating displacement of [^3H]nisoxetine (0.3 nM).

[1] = target: T2, recombinant human Dopamine (DA) transporter (Homo sapiens, UniProt Q01959); assay: Functional uptake of DA into cells expressing recombinant human transporters; format: cell-based; details: read-out: IC50 inhibition of functional uptake in human transporters, Dopamine (DA)
T2 construct: expressed in transfected cells

M2 = M2 (Homo sapiens, UniProt P08172); assay: In vitro radioligand binding assay, M2
M5 = target: T3, M5 (Homo sapiens, UniProt P08912); assay: In vitro radioligand binding assay, M5; details: read-out: Ki, M5
T3 sequence (P08912 1-532): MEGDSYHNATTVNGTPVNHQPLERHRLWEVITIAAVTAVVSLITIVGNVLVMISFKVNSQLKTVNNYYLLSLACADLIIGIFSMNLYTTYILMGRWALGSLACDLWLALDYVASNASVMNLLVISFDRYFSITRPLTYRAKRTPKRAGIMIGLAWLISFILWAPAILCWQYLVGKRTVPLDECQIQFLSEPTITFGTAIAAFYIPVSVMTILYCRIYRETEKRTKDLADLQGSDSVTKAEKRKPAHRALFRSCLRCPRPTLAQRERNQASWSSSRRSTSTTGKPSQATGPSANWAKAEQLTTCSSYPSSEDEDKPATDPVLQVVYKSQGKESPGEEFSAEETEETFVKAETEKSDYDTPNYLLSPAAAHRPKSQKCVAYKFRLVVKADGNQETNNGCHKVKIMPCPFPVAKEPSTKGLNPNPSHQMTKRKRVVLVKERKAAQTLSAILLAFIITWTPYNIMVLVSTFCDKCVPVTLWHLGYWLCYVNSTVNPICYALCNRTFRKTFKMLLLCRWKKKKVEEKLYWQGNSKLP

5-HT1B = 5-HT1B (Homo sapiens, UniProt P28222); assay: In vitro radioligand binding assay, 5-HT1B
5-HT2C = 5-HT2C (Homo sapiens, UniProt P28335); assay: In vitro radioligand binding assay, 5-HT2C
M3 receptor = target: T4, M3 receptor (Cavia porcellus, UniProt H0W1Z3); assay: Carbachol-induced contraction of the isolated Guinea pig ileum
T4 construct: from tissue; host or cells: isolated guinea pig ileum

Long-Evans derived rats [2] = assay: Porsolt forced swim test; format: in vivo, rat; details: for Mean Immobility Time (% of Total) ± SEM, Day 2 Study: 3 administrations; for Mean Immobility Time (% of Total) ± SEM, Day 4 Study: 7 administrations
Method: Performance in the Porsolt forced swim test was evaluated for sertraline and Compound P following protocols outlined in Porsolt R. D., et al., Arch. Int. Pharmacodyn., 229: 327 ([…]).
The Porsolt forced swim test is a model of “behavioral despair”, which has been used as an in vivo model for assessing potential antidepressant-like activity. Both test articles were dissolved in physiological saline (vehicle) and administered intraperitoneally. […] Long-Evans derived rats were used.

Long-Evans derived rats [3] = assay: Spontaneous locomotor activity study; format: in vivo, rat; details: mean ± SEM
Method: The effects on locomotor activity were studied in Long-Evans derived rats following protocol outlined in Dews P., Br. J. Pharmacol., 8: 46 (1953).
This effect was still evident 2 hours following drug administration. On the basis of these studies, CNS effects and long duration of action may be anticipated at sufficient clinical doses.

Rat SNL Model = assay: SNL model of neuropathic pain, mechanical hyperalgesia testing; format: in vivo
Method: The animals were anesthetized with isoflurane, the left L5 transverse process was removed, and the L5 and L6 spinal nerves were tightly ligated with 6-0 silk suture. The wound was then closed with internal sutures and external staples. Wound clips were removed 10-11 days following surgery.
Mechanical hyperalgesia testing: Baseline, post-injury and post-treatment values for […] mechanical sensitivity were evaluated using a Paw Pressure Analgesymeter (7200, Ugo Basile, Comerio, Italy) which generates a linearly increasing mechanical force. The mechanical nociceptive stimulus was applied to the plantar surface of the hind paws by a dome-shaped plastic tip placed between the 3rd and 4th metatarsus. […] Mechanical thresholds were defined as the force in grams at the first pain behavior, which includes paw withdrawal, struggle and/or vocalization. Paw pressure test was performed on each hind paw for each animal. The mean and standard error of the mean (SEM) were determined for each paw, in each treatment group. Mechanical hyperalgesia was evaluated 24 days post-surgery.
Ten rats were studied per group and the tests were performed blind. (1R,4S)-4-(3,4-dichlorophenyl)-1,2,3,4-tetrahydro-1-naphthalenamine (P) was evaluated at 3 doses (5, 10 and 15 mg/kg), administered orally and compared with a vehicle control group. Gabapentin (100 mg/kg) and duloxetine (30 mg/kg) administered orally under the same experimental conditions, were used as comparator substances. Mechanical allodynia and hyperalgesia testing were conducted at baseline and 1, 2 and 4 hours after test article administration.

rats = assay: Formalin paw test in the rat (late phase), flinches counted; format: in vivo
Method: Rats were given an intraplantar injection of 5% formalin (50 μl) into the posterior left paw. […] The number of flinches was counted for 15 minutes, beginning 20 minutes after injection of formalin. Eight rats were studied per group. The test was performed blind. […] Data were analyzed by comparing treated groups with vehicle control using unpaired Mann-Whitney U tests.

[4] = 5 mg/kg p.o. 60 min before the test
[5] = 10 mg/kg p.o. 60 min before the test
[6] = 15 mg/kg p.o. 60 min before the test

T4 sequence (H0W1Z3 1-590): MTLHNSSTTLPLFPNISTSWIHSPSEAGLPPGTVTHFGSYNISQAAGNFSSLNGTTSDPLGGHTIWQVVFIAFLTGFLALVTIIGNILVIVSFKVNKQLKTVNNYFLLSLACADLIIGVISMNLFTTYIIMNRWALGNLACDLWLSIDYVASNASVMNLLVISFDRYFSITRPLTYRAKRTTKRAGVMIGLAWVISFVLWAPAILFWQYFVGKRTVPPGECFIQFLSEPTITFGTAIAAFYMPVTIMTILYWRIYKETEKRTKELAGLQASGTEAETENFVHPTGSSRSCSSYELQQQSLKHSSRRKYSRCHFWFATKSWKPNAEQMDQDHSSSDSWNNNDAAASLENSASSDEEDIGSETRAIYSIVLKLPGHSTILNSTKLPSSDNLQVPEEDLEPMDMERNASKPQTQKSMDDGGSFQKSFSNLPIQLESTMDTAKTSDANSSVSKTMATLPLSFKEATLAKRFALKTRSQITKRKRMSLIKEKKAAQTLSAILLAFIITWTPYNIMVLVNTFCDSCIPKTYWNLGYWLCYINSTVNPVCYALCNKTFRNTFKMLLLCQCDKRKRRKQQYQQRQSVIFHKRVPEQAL
T1 sequence (Q01959 whole entry): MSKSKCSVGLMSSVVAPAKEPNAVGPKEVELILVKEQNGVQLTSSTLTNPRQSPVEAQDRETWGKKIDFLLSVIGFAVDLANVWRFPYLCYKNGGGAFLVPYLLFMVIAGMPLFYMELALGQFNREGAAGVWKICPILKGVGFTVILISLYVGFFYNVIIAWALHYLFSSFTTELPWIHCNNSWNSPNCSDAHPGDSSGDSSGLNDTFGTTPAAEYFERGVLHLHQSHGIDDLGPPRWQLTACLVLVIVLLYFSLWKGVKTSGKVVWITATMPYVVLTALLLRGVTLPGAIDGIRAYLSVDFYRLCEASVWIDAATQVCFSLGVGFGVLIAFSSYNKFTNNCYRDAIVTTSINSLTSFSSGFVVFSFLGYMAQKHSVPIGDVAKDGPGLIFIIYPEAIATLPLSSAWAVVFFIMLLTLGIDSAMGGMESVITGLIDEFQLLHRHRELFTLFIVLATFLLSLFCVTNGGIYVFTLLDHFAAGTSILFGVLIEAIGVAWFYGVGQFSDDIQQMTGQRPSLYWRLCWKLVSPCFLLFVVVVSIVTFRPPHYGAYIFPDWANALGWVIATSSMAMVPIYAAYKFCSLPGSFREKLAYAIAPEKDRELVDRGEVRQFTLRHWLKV
T2 sequence (Q01959 whole entry): as above
5-HT2C, sequence (P28335 33-458, species assumed): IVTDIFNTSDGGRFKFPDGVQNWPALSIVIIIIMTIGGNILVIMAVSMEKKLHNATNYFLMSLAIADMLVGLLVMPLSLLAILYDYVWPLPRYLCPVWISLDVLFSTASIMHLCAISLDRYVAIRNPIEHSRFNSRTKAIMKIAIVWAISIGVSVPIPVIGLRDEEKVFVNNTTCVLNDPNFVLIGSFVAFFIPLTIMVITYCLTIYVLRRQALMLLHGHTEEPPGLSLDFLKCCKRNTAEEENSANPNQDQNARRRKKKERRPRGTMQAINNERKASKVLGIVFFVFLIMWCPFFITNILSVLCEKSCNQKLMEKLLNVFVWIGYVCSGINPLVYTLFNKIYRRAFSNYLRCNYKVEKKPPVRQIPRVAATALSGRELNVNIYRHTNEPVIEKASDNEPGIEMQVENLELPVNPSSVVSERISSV
5-HT1B, sequence (P28222 whole entry, species assumed): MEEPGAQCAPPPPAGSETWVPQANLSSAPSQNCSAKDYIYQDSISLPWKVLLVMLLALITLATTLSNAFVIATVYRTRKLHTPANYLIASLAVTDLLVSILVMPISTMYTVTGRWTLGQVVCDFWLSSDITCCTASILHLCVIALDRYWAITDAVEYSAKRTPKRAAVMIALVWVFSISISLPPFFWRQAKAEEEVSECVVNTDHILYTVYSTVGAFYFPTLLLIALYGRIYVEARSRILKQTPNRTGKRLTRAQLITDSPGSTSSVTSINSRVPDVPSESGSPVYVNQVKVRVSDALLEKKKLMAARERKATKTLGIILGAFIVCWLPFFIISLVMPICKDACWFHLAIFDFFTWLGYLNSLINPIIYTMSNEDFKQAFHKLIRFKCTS
M2, sequence (P08172 whole entry): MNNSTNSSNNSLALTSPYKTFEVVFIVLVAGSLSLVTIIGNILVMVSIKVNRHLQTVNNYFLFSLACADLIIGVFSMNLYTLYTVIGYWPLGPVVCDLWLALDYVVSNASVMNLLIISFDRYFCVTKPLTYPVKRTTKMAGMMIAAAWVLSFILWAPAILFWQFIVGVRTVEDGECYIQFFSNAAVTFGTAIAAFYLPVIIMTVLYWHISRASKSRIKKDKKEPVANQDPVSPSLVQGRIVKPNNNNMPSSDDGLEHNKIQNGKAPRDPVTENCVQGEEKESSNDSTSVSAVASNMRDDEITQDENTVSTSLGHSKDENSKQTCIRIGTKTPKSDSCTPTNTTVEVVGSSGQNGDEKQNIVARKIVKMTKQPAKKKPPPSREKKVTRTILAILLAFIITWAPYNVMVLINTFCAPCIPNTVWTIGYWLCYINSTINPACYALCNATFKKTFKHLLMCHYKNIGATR

## N[C@@H]1CC[C@@H](c2ccc(Cl)c(Cl)c2)c2ccccc21 [Compound P, (1R,4S)-trans 4-(3,4-dichlorophenyl)-1,2,3,4-tetrahydro-1-napthalenamine]
DA transporter
  Ki: 0.016 µM
[1]
  IC50: 0.0129 µM
M2
  Ki: 5 µM
M5
  Ki: 8.4 µM
5-HT1B
  Ki: 1 µM
5-HT2C
  Ki: 5.1 µM
M3 receptor; duplicate samples, read-out: IC50 for inhibition of carbachol-induced contraction of the Guinea Pig ileum
  IC50: 9 µM
M3 receptor; graded concentrations, compound alone
  M3 agonist effect on isolated Guinea pig ileum: no an M3 agonist
Long-Evans derived rats [2]; 1.25 mg/kg i.p.
  Mean Immobility Time (% of Total) ± SEM, Day 2 Study: 77 ± 3 % of Total
  Mean Immobility Time (% of Total) ± SEM, Day 4 Study: 69 ± 4 % of Total
Long-Evans derived rats [2]; 2.5 mg/kg i.p.
  Mean Immobility Time (% of Total) ± SEM, Day 2 Study: 48 ± 6 % of Total
  Mean Immobility Time (% of Total) ± SEM, Day 4 Study: 46 ± 8 % of Total
Long-Evans derived rats [2]; 5.0 mg/kg i.p.
  Mean Immobility Time (% of Total) ± SEM, Day 2 Study: 49 ± 5 % of Total
  Mean Immobility Time (% of Total) ± SEM, Day 4 Study: 19 ± 6 % of Total
Long-Evans derived rats [3]; 2.5 mg/kg single i.p. dose
  Total Activity Counts, 71–80 Minutes: 49 ± 6
  Total Activity Counts, 91–100 Minutes: 54 ± 9
  Total Activity Counts, 111–120 Minutes: 34 ± 9
  Total Activity Counts, Total 1st Hour: 577 ± 54^1
  Total Activity Counts, Total 2nd Hour: 257 ± 36
Long-Evans derived rats [3]; 5.0 mg/kg single i.p. dose
  Total Activity Counts, 71–80 Minutes: 38 ± 3
  Total Activity Counts, 91–100 Minutes: 26 ± 26
  Total Activity Counts, 111–120 Minutes: 23 ± 14
  Total Activity Counts, Total 1st Hour: 444 ± 91
  Total Activity Counts, Total 2nd Hour: 160 ± 32
Rat SNL Model; 5 mg/kg PO, 0 h (Baseline)
  Mechanical Hyperalgesia, Paw Pressure Threshold (Mean ± SEM): 147 ± 17 g
Rat SNL Model; 5 mg/kg PO, 1 h
  Mechanical Hyperalgesia, Paw Pressure Threshold (Mean ± SEM): 183 ± 35 g
Rat SNL Model; 5 mg/kg PO, 2 h
  Mechanical Hyperalgesia, Paw Pressure Threshold (Mean ± SEM): 240 ± 32 g
Rat SNL Model; 5 mg/kg PO, 4 h
  Mechanical Hyperalgesia, Paw Pressure Threshold (Mean ± SEM): 257 ± 37 g
Rat SNL Model; 10 mg/kg PO, 0 h (Baseline)
  Mechanical Hyperalgesia, Paw Pressure Threshold (Mean ± SEM): 152 ± 18 g
Rat SNL Model; 10 mg/kg PO, 1 h
  Mechanical Hyperalgesia, Paw Pressure Threshold (Mean ± SEM): 213 ± 32 g
Rat SNL Model; 10 mg/kg PO, 2 h
  Mechanical Hyperalgesia, Paw Pressure Threshold (Mean ± SEM): 309 ± 27 g
Rat SNL Model; 10 mg/kg PO, 4 h
  Mechanical Hyperalgesia, Paw Pressure Threshold (Mean ± SEM): 282 ± 30 g
Rat SNL Model; 15 mg/kg PO, 0 h (Baseline)
  Mechanical Hyperalgesia, Paw Pressure Threshold (Mean ± SEM): 164 ± 22 g
Rat SNL Model; 15 mg/kg PO, 1 h
  Mechanical Hyperalgesia, Paw Pressure Threshold (Mean ± SEM): 281 ± 37 g
Rat SNL Model; 15 mg/kg PO, 2 h
  Mechanical Hyperalgesia, Paw Pressure Threshold (Mean ± SEM): 251 ± 37 g
Rat SNL Model; 15 mg/kg PO, 4 h
  Mechanical Hyperalgesia, Paw Pressure Threshold (Mean ± SEM): 269 ± 37 g
rats; [4]
  NUMBER OF FLINCHES (20 to 35 min after formalin), mean ± s.e.m.: 89.0 ± 18.4NS
  NUMBER OF FLINCHES, % change from control: 0%
rats; [5]
  NUMBER OF FLINCHES (20 to 35 min after formalin), mean ± s.e.m.: 76.4 ± 15.2NS
  NUMBER OF FLINCHES, % change from control: −15%
rats; [6]
  NUMBER OF FLINCHES (20 to 35 min after formalin), mean ± s.e.m.: 44.6 ± 13.6
  NUMBER OF FLINCHES, % change from control: −50%
